Test results taken from US20250313547A1, “CEREBLON LIGANDS AND BIFUNCTIONAL COMPOUNDS COMPRISING THE SAME” (Arvinas Operations, Inc., priority 2017, published 2025).

Test system: androgen receptor (AR)
Experiment: AR ELISA assay (androgen receptor degradation)
Format: cell-based
Settings: LNCaP and/or VCaP cells, 5 hours drug treatment; for AR Dmax: % degraded
Experimental: 5. AR ELISA Assay Protocol
Compounds were evaluated in this assay in LNCaP and/or VCaP cells utilizing similar protocols. The protocols used with VCaP cells are described below. The androgen receptor ELISA assay was performed using PathScan AR Sandwich ELISA (Cell Signaling Catalog #12850) according to the following assay steps:
VCaP cells were seeded at 40,000 cells/well at a volume of 100 µL/well in VCaP assay medium [Phenol red free RPMI (Gibco Cat #11835-030); 5% Charcoal Stripped (Dextran treated) FBS (Omega Scientific, Cat #FB-04); 1% penstrep (Life Technologies, Gibco Cat #: 10378-016)] in Corning 3904 plates. The cells were incubated for a minimum of 3 days. Cells were dosed with PROTACs diluted in 0.01% DMSO and the drug treatment was allowed for 5 hours.
AR ELISA (Cell Signaling) was performed as follows. 1×Cell Signaling Cell lysis buffer was made (Catalogue #9803; comes with the kit). Media from the treated wells is aspirated, and 100 μL 1×cell lysis buffer/well is added. The cells were placed on a shaker for 10 minutes at 4° C. Twenty microliters of lysate was transferred to 100 μl of Diluent in ELISA plate ([…]-0.075 μg/ml). The lysate-diluent mixture was shaken for 30 minutes at 37° C. Allow mouse AR antibody, anti-mouse antibody, TMB, and STOP solution to come to room temperature. The 1×ELISA buffer included in kit was made and loaded in the reservoir. Media from the plates was discarded, the ELISA plate tapped hard on paper towel, and washed 4×200 μl ELISA wash buffer using a plate washer.
One-hundred (100) μL/well of mouse AR detection Ab was added; the plates were covered and shaken at 37° C. for 1 hour; media was discarded from the plates, the plates were tapped on a paper towel, washed 4× with 200 μL ELISA wash buffer with a plate washer.
One-hundred (100) μL/well of anti-mouse—HRP conjugated Ab (comes with the kit) was added; the plates were covered and shaken at 37° C. for 30 minutes; the TMB reagent was allowed to come to room temperature; the media was discard from the plate, the plates were tapped on paper towel, washed 4× with 200 μL of ELISA wash buffer; the plates were tapped the plates on paper towel. One-hundred (100) μL of TMB was added and the plates shaken for 2 minutes—while watching for color development. One-hundred (100) μL Stop solution was added when light blue color developed. Plates were shaken and read at 450 nm.

| DC50 [nM] | SMILES | AR Dmax |
| --- | --- | --- |
| 1 to 10 | CC1(C)[C@H](NC(=O)c2ccc(N3CCN(CCCCCOc4ccc(C(=O)NC5CCC(=O)NC5=O)nc4)CC3)nc2)C(C)(C)[C@H]1Oc1ccc(C#N)c(Cl)c1 (mixture of isomers) [PROTAC-27, rac-5-((5-(4-(5-(((1r,3r)-3-(3-chloro-4-cyanophenoxy)-2,2,4,4-tetramethylcyclobutyl)carbamoyl)pyridin-2-yl)piperazin-1-yl)pentyl)oxy)-N-(2,6-dioxopiperidin-3-yl)picolinamide] | B (50 < B <= 75) |
| ≥ 100 | CC1Nc2c(OCCCCCN3CCN(c4ccc(C(=O)N[C@H]5C(C)(C)[C@H](Oc6ccc(C#N)c(Cl)c6)C5(C)C)cn4)CC3)cccc2C(=O)N1C1CCC(=O)NC1=O (mixture of isomers) [PROTAC-28, rac-N-((1r,3r)-3-(3-chloro-4-cyanophenoxy)-2,2,4,4-tetramethylcyclobutyl)-6-(4-(5-((3-(2,6-dioxopiperidin-3-yl)-2-methyl-4-oxo-1,2,3,4-tetrahydroquinazolin-8-yl)oxy)pentyl)piperazin-1-yl)nicotinamide] | C (C <= 50) |
| ≥ 100 | CCN(C(=O)c1ccc(OCCCCCN2CCN(c3ccc(C(=O)N[C@H]4C(C)(C)[C@H](Oc5ccc(C#N)c(Cl)c5)C4(C)C)cn3)CC2)cc1)C1CCC(=O)NC1=O (mixture of isomers) [PROTAC-48, rac-N-((1r,3r)-3-(3-chloro-4-cyanophenoxy)-2,2,4,4-tetramethylcyclobutyl)-6-(4-(5-(4-((2,6-dioxopiperidin-3-yl)(ethyl)carbamoyl)phenoxy)pentyl)piperazin-1-yl)nicotinamide] | C (C <= 50) |
| ≥ 100 | CN(C(=O)c1ccc(OCCCCCN2CCN(c3ccc(C(=O)N[C@H]4C(C)(C)[C@H](Oc5ccc(C#N)c(Cl)c5)C4(C)C)cn3)CC2)cc1)C1CCC(=O)NC1=O (mixture of isomers) [PROTAC-49, rac-N-((1r,3r)-3-(3-chloro-4-cyanophenoxy)-2,2,4,4-tetramethylcyclobutyl)-6-(4-(5-(4-((2,6-dioxopiperidin-3-yl)(methyl)carbamoyl)phenoxy)pentyl)piperazin-1-yl)nicotinamide] | C (C <= 50) |
| < 1 | CC1(C)[C@H](NC(=O)c2ccc(N3CCC(CCN4CCN(c5ccc(C(=O)NC6CCC(=O)NC6=O)nc5)CC4)CC3)nc2)C(C)(C)[C@H]1Oc1ccc(C#N)c(Cl)c1 (mixture of isomers) [PROTAC-52, rac-5-(4-(2-(1-(5-(((1r,3r)-3-(3-chloro-4-cyanophenoxy)-2,2,4,4-tetramethylcyclobutyl)carbamoyl)pyridin-2-yl)piperidin-4-yl)ethyl)piperazin-1-yl)-N-(2,6-dioxopiperidin-3-yl)picolinamide] | B (50 < B <= 75) |
| 1 to 10 | CC1(C)[C@H](NC(=O)c2ccc(N3CCC(CN4CCN(c5ccc(C(=O)NC6CCC(=O)NC6=O)nc5)CC4)CC3)nn2)C(C)(C)[C@H]1Oc1ccc(C#N)c(Cl)c1 (mixture of isomers) [PROTAC-54, rac-N-((1r,3r)-3-(3-chloro-4-cyanophenoxy)-2,2,4,4-tetramethylcyclobutyl)-6-(4-((4-(6-((2,6-dioxopiperidin-3-yl)carbamoyl)pyridin-3-yl)piperazin-1-yl)methyl)piperidin-1-yl)pyridazine-3-carboxamide] | B (50 < B <= 75) |
| < 1 | CC1(C)[C@H](NC(=O)c2ccc(N3CCC(CN4CCN(c5ccc(C(=O)NC6CCC(=O)NC6=O)nc5)CC4)CC3)cc2)C(C)(C)[C@H]1Oc1ccc(C#N)c(Cl)c1 (mixture of isomers) [PROTAC-55, rac-5-(4-((1-(4-(((1r,3r)-3-(3-chloro-4-cyanophenoxy)-2,2,4,4-tetramethylcyclobutyl)carbamoyl)phenyl)piperidin-4-yl)methyl)piperazin-1-yl)-N-(2,6-dioxopiperidin-3-yl)picolinamide] | B (50 < B <= 75) |
| 1 to 10 | CC1(C)[C@H](NC(=O)c2cnc(N3CCC(CN4CCN(c5ccc(C(=O)NC6CCC(=O)NC6=O)nc5)CC4)CC3)cn2)C(C)(C)[C@H]1Oc1ccc(C#N)c(Cl)c1 (mixture of isomers) [PROTAC-56, rac-N-((1r,3r)-3-(3-chloro-4-cyanophenoxy)-2,2,4,4-tetramethylcyclobutyl)-5-(4-((4-(6-((2,6-dioxopiperidin-3-yl)carbamoyl)pyridin-3-yl)piperazin-1-yl)methyl)piperidin-1-yl)pyrazine-2-carboxamide] | B (50 < B <= 75) |
| ≥ 100 | CC1(C)[C@H](NC(=O)c2ccc(N3CCN(CCCOc4cnn(C5CCC(=O)NC5=O)c(=O)c4)CC3)nc2)C(C)(C)[C@H]1Oc1ccc(C#N)c(Cl)c1 (mixture of isomers) [PROTAC-60, rac-N-((1r,3r)-3-(3-chloro-4-cyanophenoxy)-2,2,4,4-tetramethylcyclobutyl)-6-(4-(3-((1-(2,6-dioxopiperidin-3-yl)-6-oxo-1,6-dihydropyridazin-4-yl)oxy)propyl)piperazin-1-yl)nicotinamide] | C (C <= 50) |
| < 1 | CC1(C)[C@H](NC(=O)c2ccc(N3CCC(CN4CCN(c5cnn(C6CCC(=O)NC6=O)c(=O)c5)CC4)CC3)cc2)C(C)(C)[C@H]1Oc1ccc(C#N)c(Cl)c1 (mixture of isomers) [PROTAC-62, rac-N-((1r,3r)-3-(3-chloro-4-cyanophenoxy)-2,2,4,4-tetramethylcyclobutyl)-4-(4-((4-(1-(2,6-dioxopiperidin-3-yl)-6-oxo-1,6-dihydropyridazin-4-yl)piperazin-1-yl)methyl)piperidin-1-yl)benzamide] | B (50 < B <= 75) |
| < 1 | CC1(C)[C@H](NC(=O)c2ccc(N3CCC(CCN4CCN(c5cnn(C6CCC(=O)NC6=O)c(=O)c5)CC4)CC3)cc2)C(C)(C)[C@H]1Oc1ccc(C#N)c(Cl)c1 (mixture of isomers) [PROTAC-63, rac-N-((1r,3r)-3-(3-chloro-4-cyanophenoxy)-2,2,4,4-tetramethylcyclobutyl)-4-(4-(2-(4-(1-(2,6-dioxopiperidin-3-yl)-6-oxo-1,6-dihydropyridazin-4-yl)piperazin-1-yl)ethyl)piperidin-1-yl)benzamide] | A (A > 75) |
| 1 to 10 | Cn1c(-c2cccc(OCCCCCN3CCN(c4ccc(C(=O)N[C@H]5C(C)(C)[C@H](Oc6ccc(C#N)c(Cl)c6)C5(C)C)cc4)CC3)c2)nn(C2CCC(=O)NC2=O)c1=O (mixture of isomers) [PROTAC-67, rac-N-((1r,3r)-3-(3-chloro-4-cyanophenoxy)-2,2,4,4-tetramethylcyclobutyl)-4-(4-(5-(3-(1-(2,6-dioxopiperidin-3-yl)-4-methyl-5-oxo-4,5-dihydro-1H-1,2,4-triazol-3-yl)phenoxy)pentyl)piperazin-1-yl)benzamide] | C (C <= 50) |
| < 1 | Cn1c(-c2cccc(N3CCN(CC4CCN(c5ccc(C(=O)N[C@H]6C(C)(C)[C@H](Oc7ccc(C#N)c(Cl)c7)C6(C)C)cc5)CC4)CC3)c2)nn(C2CCC(=O)NC2=O)c1=O (mixture of isomers) [PROTAC-68, rac-N-((1r,3r)-3-(3-chloro-4-cyanophenoxy)-2,2,4,4-tetramethylcyclobutyl)-4-(4-((4-(3-(1-(2,6-dioxopiperidin-3-yl)-4-methyl-5-oxo-4,5-dihydro-1H-1,2,4-triazol-3-yl)phenyl)piperazin-1-yl)methyl)piperidin-1-yl)benzamide] | A (A > 75) |
| < 1 | Cn1c(-c2ccc(OCCCCCN3CCN(c4ccc(C(=O)N[C@H]5C(C)(C)[C@H](Oc6ccc(C#N)c(Cl)c6)C5(C)C)cc4)CC3)cc2)nn(C2CCC(=O)NC2=O)c1=O (mixture of isomers) [PROTAC-69, rac-N-((1r,3r)-3-(3-chloro-4-cyanophenoxy)-2,2,4,4-tetramethylcyclobutyl)-4-(4-(5-(4-(1-(2,6-dioxopiperidin-3-yl)-4-methyl-5-oxo-4,5-dihydro-1H-1,2,4-triazol-3-yl)phenoxy)pentyl)piperazin-1-yl)benzamide] | B (50 < B <= 75) |

| SMILES | DC50 [nM] | AR Dmax |
| --- | --- | --- |
| CC1(C)[C@H](NC(=O)c2ccc(N3CCN(CCCCOc4ccc(C(=O)NC5CCC(=O)NC5=O)nc4)CC3)nc2)C(C)(C)[C@H]1Oc1ccc(C#N)c(Cl)c1 (mixture of isomers) [PROTAC-51, rac-5-(4-(4-(5-(((1r,3r)-3-(3-chloro-4-cyanophenoxy)-2,2,4,4-tetramethylcyclobutyl)carbamoyl)pyridin-2-yl)piperazin-1-yl)butoxy)-N-(2,6-dioxopiperidin-3-yl)picolinamide] | < 1 | C (C <= 50) |
